Experimental data: patent US10870627B2, “Salt of quinazoline derivative, preparation method therefor and application thereof” (SHANGHAI PHARMACEUTICALS HOLDING CO., LTD., priority 2016, dated 2020)

How the values were obtained:
Solution stability test = format: physicochemical
Method: About 15 mg of the sample was weighed accurately, dissolved with 25 mL of the test solvent (10% aqueous acetone solution, pH=4.0 B-R buffer solution, SGF, SIF) via ultrasound for 20 minutes. The solution was divided into four portions and placed in the clear glass vials, followed by sealing. The samples were exposed in different environments and sampled on day 0 and day 5. The purity of each sample was determined by HPLC, and the number of impurities greater than 0.05% was calculated and compared with the samples on day 0. The exposure environments are:
Room temperature and light-proof test, 25° C.; […]
Illumination experiment (4500±500 lx), 25° C.;
Oxidation experiment (3% v/v hydrogen peroxide), 25° C.

[1] = Comparison of absorption in rats after intragastric administration of free base and salt (plasma pharmacokinetics); format: in vivo, SD rats
Method: The blood sample was centrifuged at 8000 RPM for 5 minutes, followed by the isolation of the upper plasma. […] 200 μL of the supernatant was taken and centrifuged again for 10 minutes. 50 μL of the supernatant was injected in a 96-well plate. The plasma drug concentration was determined by LC/MS/MS, and the corresponding pharmacokinetic parameters were calculated.

[2] = Solid-state stability test; format: physicochemical
Method: An appropriate amount of the drugs were placed in the surface dish, spread to a thickness of 3-5 mm, and exposed in high temperature, high temperature and high humidity, illumination and oxidation conditions for 10 days respectively, and the solid-state characterization was performed. The purity and the number of impurities 0.05%) of the samples for testing were determined by HPLC, and compared with the samples on day 0. The exposure conditions are:
High temperature (an oven with T=60° C.);
Illumination (25° C., a 4500±500 lx light incubator);
Oxidation (25° C., a closed container containing urea hydrogen peroxide).

[3] = Solubility determined by visual inspection; format: physicochemical; settings: room temperature
Method: The solubility was determined as follows: a certain amount of the sample was weighed and the solvent was added thereto in portions with stirring or ultrasonication to accelerate dissolution; the amount of the consumed solvent was recorded once the sample was dissolved. […] A certain volume of the solution was taken, followed by filtration, concentration, dissolved with a certain volume of other suitable solvents and subjected to HPLC measurement to obtain accurate data of the solubility.

[4] = Dynamic vapor sorption (DVS), isothermal absorption analysis; format: physicochemical
Method: In the present invention, according to the common knowledge in the art, the amount of water absorption obtained from the dynamic vapor sorption (DVS) pattern is expressed in percentage by weight.
The isothermal absorption analysis (DVS) data was collected from TA Instruments Q5000 TGA. The software for instrument control was Thermal Advantage and software for analysis was Universal Analysis. 1-10 mg of the sample was generally placed in a platinum crucible, and the weight change of the sample during the relative humidity changing from 20% to 80% was recorded by the TA software. Depending on the specifics of the sample, different steps of sample adsorption and desorption were also involved.

[5] = 10% aqueous acetone solution, 5 d, High temperature
[6] = 10% aqueous acetone solution, 5 d, High temperature and high humidity
[7] = 10% aqueous acetone solution, 5 d, Oxidation (3% v/v hydrogen peroxide, 25° C.)
[8] = B-R Buffer solution (pH=4.0), 5 d, High temperature
[9] = B-R Buffer solution (pH=4.0), 5 d, High temperature and high humidity
[10] = B-R Buffer solution (pH=4.0), 5 d, Illumination (4500±500 lx, 25° C.)
[11] = B-R Buffer solution (pH=4.0), 5 d, Oxidation (3% v/v hydrogen peroxide, 25° C.)
[12] = SGF, 5 d, High temperature and high humidity
[13] = SIF, 5 d, High temperature and high humidity
[14] = SIF, 5 d, Illumination (4500±500 lx, 25° C.)
[15] = SIF, 5 d, Oxidation (3% v/v hydrogen peroxide, 25° C.)
[16] = SD rats, 20 μmol/kg, intragastric administration, plasma
[17] = 10 d, High temperature (oven, T=60° C.)
[18] = 10 d, High temperature and high humidity (40° C., 75% relative humidity)
[19] = 10 d, Illumination (25° C., 4500±500 lx)
[20] = 10 d, Oxidation (25° C., closed container with urea hydrogen peroxide)

`C=C(F)C(=O)Nc1cc2c(Nc3ccc(F)c(Cl)c3)ncnc2cc1OCCCN1CCOCC1.O=S(=O)(O)CCS(=O)(=O)O` gave a Number of impurities (Solution stability test; 10% aqueous acetone solution, 0 d, impurities greater than 0.05%) of 1, a Number of impurities (Solution stability test; [5]) of 1 and a Purity (Solution stability test; [5]) of 99.0%. For the same compound, the Number of impurities (Solution stability test; [6]) was 3, the Purity (Solution stability test; [6]) was 98.1% and the Number of impurities (Solution stability test; 10% aqueous acetone solution, 5 d, Illumination (4500±500 lx, 25° C.)) was 1. For the same compound, the Number of impurities (Solution stability test; [7]) was 7, the Purity (Solution stability test; [7]) was 70.8% and the Purity (Solution stability test; B-R Buffer solution (pH=4.0), 0 d) was 99.0%. The Number of impurities (Solution stability test; B-R Buffer solution (pH=4.0), 0 d, impurities greater than 0.05%) was 1, the Number of impurities (Solution stability test; [8]) was 1 and the Purity (Solution stability test; [8]) was 99.0%. For the same compound, the Number of impurities (Solution stability test; [9]) was 3, the Purity (Solution stability test; [9]) was 97.7% and the Number of impurities (Solution stability test; [10]) was 1. The Purity (Solution stability test; [10]) was 99.0%, the Number of impurities (Solution stability test; [11]) was 15 and the Purity (Solution stability test; [11]) was 44.0%. The Purity (Solution stability test; SGF, 0 d) was 99.0%, the Number of impurities (Solution stability test; SGF, 0 d, impurities greater than 0.05%) was 1 and the Number of impurities (Solution stability test; SGF, 5 d, High temperature) was 2. The Number of impurities (Solution stability test; [12]) was 2, the Purity (Solution stability test; [12]) was 94.5% and the Number of impurities (Solution stability test; SGF, 5 d, Illumination (4500±500 lx, 25° C.)) was 2. The Number of impurities (Solution stability test; SGF, 5 d, Oxidation (3% v/v hydrogen peroxide, 25° C.)) was 3, the Purity (Solution stability test; SIF, 0 d) was 74.8% and the Number of impurities (Solution stability test; SIF, 0 d, impurities greater than 0.05%) was 2. It also gave a Number of impurities (Solution stability test; SIF, 5 d, High temperature) of 1, a Purity (Solution stability test; SIF, 5 d, High temperature) of 50.0% and a Number of impurities (Solution stability test; [13]) of 6. The Purity (Solution stability test; [13]) was 36.5%, the Number of impurities (Solution stability test; [14]) was 13 and the Purity (Solution stability test; [14]) was 25.2%. The Number of impurities (Solution stability test; [15]) was 7, the Purity (Solution stability test; [15]) was 30.8% and the “AUC (0-t)” value [1, 16] was 195.56 ± 84.51 µM·min. For the same compound, the “MRT (0-T)” value [1, 16] was 5.3317 ± 0.9937 h, the Tmax [1, 16] was 1.333 ± 0.2887 h and the t1/2 [1, 16] was 3.744 ± 0.9165 h. For the same compound, the Cmax ([1]; SD rats, 20 μmol/kg, intragastric administration, plasma, listed as monoethanedisulfonate) was 390 ± 160 nM, the “AUC (0-t) and Cmax, comparison in words” value ([1]; rats, oral, same dose, free base and 6 salts) was “relatively low” and the Number of impurities ([2]; 0 d) was 2. It also gave a Purity ([2]; 0 d) of 99.0%, a Number of impurities [2, 17] of 2 and a Purity [2, 17] of 99.0%. For the same compound, the Number of impurities [2, 18] was 2, the Purity [2, 18] was 99.0% and the Number of impurities [2, 19] was 2. The Purity [2, 19] was 99.0%, the Number of impurities [2, 20] was 2 and the Purity [2, 20] was 99.0%. The “visual solubility in water” value [3] was 1000 to 2000 µg/mL and the “hygroscopicity, in words” value [4] was “not easy to absorb moisture”.
